Reference: article PMC5018964, “Visualization and ligand-induced modulation of dopamine receptor dimerization at the single molecule level” (Scientific Reports, 2016)

T1: human dopamine D2L receptor (wild type, non-tagged) (human), P14416
T1 chain: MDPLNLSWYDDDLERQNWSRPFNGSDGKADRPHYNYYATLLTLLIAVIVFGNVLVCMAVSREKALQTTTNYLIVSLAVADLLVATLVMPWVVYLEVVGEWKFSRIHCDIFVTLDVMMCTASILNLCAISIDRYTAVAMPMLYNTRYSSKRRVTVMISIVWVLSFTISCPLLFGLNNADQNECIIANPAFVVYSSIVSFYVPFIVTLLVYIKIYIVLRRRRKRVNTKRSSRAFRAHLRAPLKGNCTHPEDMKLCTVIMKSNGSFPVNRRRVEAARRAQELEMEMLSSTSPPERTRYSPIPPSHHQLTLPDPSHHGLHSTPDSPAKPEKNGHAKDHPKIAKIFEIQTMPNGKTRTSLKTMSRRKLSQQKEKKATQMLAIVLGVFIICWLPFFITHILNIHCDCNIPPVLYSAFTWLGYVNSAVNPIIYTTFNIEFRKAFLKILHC


Legend:
human D2L = target: T2, human D2L (Homo sapiens, UniProt P14416); test: [3H]spiperone competition/saturation binding, membranes of CHO cells expressing human D2L; details: [³H]spiperone competition, CHO cell membranes; read-out: Ki ± s.d. hD2L
T2 construct: expressed in transfected cells

human D2S = target: T3, human D2S (Homo sapiens, UniProt P14416); test: [3H]spiperone competition/saturation binding, membranes of CHO cells expressing human D2S; details: [³H]spiperone competition, CHO cell membranes; read-out: Ki ± s.d. hD2S
T3 construct: expressed in transfected cells

human D3 = target: T4, human D3 (Homo sapiens, UniProt P35462); test: [3H]spiperone competition/saturation binding, membranes of CHO cells expressing human D3; details: [³H]spiperone competition, CHO cell membranes; read-out: Ki ± s.d. hD3
T4 construct: expressed in transfected cells

SNAP-D2L receptor = target: T5, SNAP-D2L receptor (Homo sapiens, UniProt P14416); test: Single-molecule TIRF-M of SNAP-D2L receptors in CHO cells with ligands (dimerization, mobility, colocalization); format: cell-based; details: for Average Dlat 24°C (average lateral diffusion coefficient) / Density (spots µm-2) / fraction of dimers: SNAP-D2L in CHO cells; for Average Dlat 24°C (average lateral diffusion coefficient) / Density (spots µm-2): mean ± s.d.; for fraction of dimers: 10-fold Ki, ligand-free 30%; for effect on monomer/dimer ratio and mobility of the SNAP-D2L receptor compared to ligand-free conditions: Alexa546-labeled SNAP-D2L in CHO cells incubated with ligand; for mean apparent colocalization lifetime τ of two receptors in a dimer: SNAP-D2L incubated with ligand, one-phase exponential decay fit, 120 trajectories, ligand free 0.46 s
T5 construct: expressed in transfected cells
Experimental: 24 h before the TIRF-experiment dried and cleaned glass slides were placed in a 12 well plate and were coated by incubation with 20 μg ml^−1 fibronectin (Sigma–Aldrich) in sterile PBS for 1 h at 37 °C. After coating, fibronectin was aspirated and the glass surface was rinsed one time with sterile PBS. CHO cells expressing SNAP-D2L, SNAP-CD86, SNAP-CD28, D2L, D2S or D3 receptors were seeded on coated glass slides in phenol-red-free DMEM/F12 supplemented with 10% FCS and were allowed to adhere overnight at 37 °C and 5% CO2.
Subsequently, cells were washed three times with phenol red-free DMEM/F12 supplemented with 10% FBS, each time followed by 5 min incubation at 37 °C.
For the ligand treatment experiments, the indicated concentration of the corresponding ligand in phenol red-free DMEM/F12 supplemented with 10% FBS were added to stably transfected CHO cells, which were ready for imaging, for 1 h before imaging.
Subsequently after labeling, cells were washed three times with phenol red-free DMEM/F12 supplemented with 10% FBS. […] Finally the imaging chamber was refilled with fresh imaging buffer and mounted immediately on a microscope stage for TIRF-M imaging.
The microscope control and image acquisition were performed by the NIS Elements software (Nikon Instruments). To ensure homogenous illumination, only the central quarter of the chip (300 × 300 pixel) was used for imaging analysis.
The image analysis procedures have been described in detail previously. An automated single particle tracking (ASPT) algorithm[58] implemented in custom-written software, GMimPro (www.mashanov.uk), was used to identify and track individual fluorescent spots on sequential video frames. ASPT settings used were FWHM300nm, R5, L20, Q10 and C999. Output from this image analysis gave fluorophore centroid positions (with 25 nm precision), integrated fluorophore intensities, total fluorophore number and trajectory lifetime. Spatial trajectories and intensity trajectories (i.e. intensities vs. time) were then further analysed to determine: the lateral diffusion coefficient, Dlat, which was derived from averaged mean squared displacement (MSD) versus time interval (δt), the average fluorescent spot density (spot μm^−^2) and distribution across the cell membrane and the intensity distribution of individual fluorescent spots and intensity fluctuation with time as well as the lifetime of colocalization. The Dlat was measured for each cell separately and the average value (average Dlat, mean ± standard deviation (s.d.)) was calculated for an indicated number of cells. Slow-moving objects Dlat < 0.02 μm^2 s^−1 were excluded from the analysis and only cells with a mobile trajectory fraction (trajectories with a Dlat > 0.02 μm^2 s^−1) over 0.75 were used for further analysis. Intensity distributions of fluorescent spots identified over the first 10-frame time window of TIRF illumination were fitted with a sum of Gaussian distributions (with standard deviation proportional to square root of intensity level) using the PRISM routine. The ratio of the areas under the Gaussian curves was calculated to give the percentage of the underlying component. Unpaired two-tailed Student´s t-tests were used for statistical significance.

SNAP-D2L receptors = SNAP-D2L receptors (Homo sapiens, UniProt P14416+P16455, A127T/A154D/C150Q/C62A/E30R/G131K/G132T/G153L/K125A/K32I/L33F/M134L/N157G/Q115S/Q116H/R128A/R135S/S151G/S152D/S159E); test: [3H]spiperone competition/saturation binding, membranes of CHO cells expressing SNAP-D2L
Experimental: Membrane preparations were obtained using the methods described previously[50]. […] The homogenized membranes were shock-frozen in liquid nitrogen and stored at −80 °C until usage. The protein concentration was determined by the Lowry method[51] using bovine serum albumin as a standard.
Receptor binding studies were carried out as described previously[27][50][52]. […] The Ki values for the compounds were obtained by competition experiments.
Analysis of the saturation experiments were performed using a nonlinear regression analysis of the data for the determination of KD and Bmax values using PRISM (GraphPad Software). Competition curves were fitted to a sigmoid curve by nonlinear regression analysis in which the log IC50 value and the Hill coefficient were free parameters. IC50 values were transformed to Ki values according to the equation of Cheng and Prusoff [53].

[1] = target: the molecule itself; test: single-molecule TIRF microscopy (intensity distribution of fluorescent spots); receptors on living CHO cells labelled 1 h at 37 °C with a fluorescent (Cy3B) antagonist (1c, 4a or 4b) at 10-fold Ki; spots fitted with a mixed Gaussian model
[2] = target: T1, human dopamine D2L receptor (wild type, …); test: as above; details: remark: other sources report otherwise
[3] = target: T1, human dopamine D2L receptor (wild type, …); test: single-molecule TIRF microscopy (intensity distribution of fluorescent spots); receptors on living CHO cells labelled 1 h at room temperature with a fluorescent (Cy3B) agonist (5a or 5b) at 10-fold Ki; spots fitted with a mixed Gaussian model; details: remark: other sources report otherwise
[4] = 10 x Ki value labeling concentration
[5] = 100 x Ki value labeling concentration

Sequence of SNAP-D2L receptors (P16455+P14416 fused with the stated changes): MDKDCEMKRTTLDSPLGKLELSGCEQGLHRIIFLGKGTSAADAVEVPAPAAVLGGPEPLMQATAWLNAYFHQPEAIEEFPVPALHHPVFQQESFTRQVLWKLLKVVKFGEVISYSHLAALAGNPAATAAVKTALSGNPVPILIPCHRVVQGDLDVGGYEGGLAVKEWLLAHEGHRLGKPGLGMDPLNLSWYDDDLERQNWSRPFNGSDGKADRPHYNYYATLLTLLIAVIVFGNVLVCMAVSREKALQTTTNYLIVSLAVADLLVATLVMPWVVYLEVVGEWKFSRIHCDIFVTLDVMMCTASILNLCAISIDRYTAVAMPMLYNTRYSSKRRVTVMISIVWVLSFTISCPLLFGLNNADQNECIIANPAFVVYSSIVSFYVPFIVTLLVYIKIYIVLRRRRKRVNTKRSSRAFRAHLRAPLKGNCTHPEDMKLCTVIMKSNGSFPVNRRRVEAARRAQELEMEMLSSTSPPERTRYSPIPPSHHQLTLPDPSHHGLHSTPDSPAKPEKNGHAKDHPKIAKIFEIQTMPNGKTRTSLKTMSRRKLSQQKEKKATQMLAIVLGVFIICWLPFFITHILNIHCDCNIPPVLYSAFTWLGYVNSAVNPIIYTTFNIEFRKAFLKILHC

Molecule | Ki (human D2L) [nM] | Ki (human D2S) [nM] | Ki (human D3) [nM] | Average Dlat 24°C (average lateral diffusion coefficient) (SNAP-D2L receptor; [4]) [µm² s-1] | Density (spots µm-2) (SNAP-D2L receptor; [4]) | Ki (SNAP-D2L receptors) [nM] | Average Dlat 24°C (average lateral diffusion coefficient) (SNAP-D2L receptor; [5]) [µm² s-1] | Density (spots µm-2) (SNAP-D2L receptor; [5]) | further results
COc1cc(CN2CCN(c3ccccc3OC)CC2)ccc1OCCCc1cn(CCCCCCCCn2cc(CCCOc3ccc(CN4CCN(C5CCCCC5)CC4)cc3OC)nn2)nn1 [3b] | 19 ± 8.2 | 17 ± 8.1 | 100 ± 33 | 0.083 ± 0.005 | 0.68 ± 0.04 | – | – | – | –
COc1ccccc1N1CCN(Cc2ccc(OCCCc3cn(CCCCCCCCn4cc(CCCOc5ccc(CN6CCN(c7ccccc7OC)CC6)cc5OCCCCN)nn4)nn3)c(OCCCCN)c2)CC1 [2b] | 3 ± 0.29 | 3 ± 0.92 | 2.6 ± 0.64 | 0.075 ± 0.004 | 0.64 ± 0.04 | 2.4 ± 1.1 | 0.071 ± 0.05 | 0.67 ± 0.02 | fraction of dimers (SNAP-D2L receptor): 58%
CCCCn1cc(CCCOc2ccc(CN3CCN(c4ccccc4OC)CC3)cc2OC)nn1 [1a] | 67 ± 33 | 53 ± 37 | 615 ± 370 | 0.087 ± 0.003 | 0.68 ± 0.04 | 280 ± 190 | 0.083 ± 0.005 | 0.69 ± 0.03 | effect on monomer/dimer ratio and mobility of the SNAP-D2L receptor compared to ligand-free conditions (SNAP-D2L receptor): no effect; mean apparent colocalization lifetime τ of two receptors in a dimer (SNAP-D2L receptor): 0.42 s
CCCCn1cc(CCCOc2ccc(CN3CCN(c4ccccc4OC)CC3)cc2OCCCCN)nn1 [1b] | 15 ± 8 | 18 ± 5.7 | 70 ± 24 | 0.085± 0.004 | 0.66 ± 0.04 | 4.8 ± 0.28 | 0.081 ± 0.006 | 0.69 ± 0.04 | effect on monomer/dimer ratio and mobility of the SNAP-D2L receptor compared to ligand-free conditions (SNAP-D2L receptor): no effect
COc1cc(CN2CCN(C)CC2)ccc1OCCCc1cn(CCCCCCCCn2cc(CCCOc3ccc(CN4CCN(c5ccccc5OC)CC4)cc3OC)nn2)nn1 [3a] | 9.8 ± 9.8 | 7.3 ± 1.3 | 220 ± 83 | 0.083 ± 0.004 | 0.67 ± 0.03 | – | – | – | –
COc1cc(CN2CCN(c3ccccc3OC)CC2)ccc1OCCCc1cn(CCCCCCCCn2cc(CCCOc3ccc(CN4CCN(c5ccccc5OC)CC4)cc3OC)nn2)nn1 [2a] | 22 ± 6.7 | 41 ± 19 | 84 ± 24 | 0.074 ± 0.004 | 0.65 ± 0.04 | 20 ± 7.1 | 0.075 ± 0.005 | 0.65 ± 0.04 | fraction of dimers (SNAP-D2L receptor): 66%; mean apparent colocalization lifetime τ of two receptors in a dimer (SNAP-D2L receptor): 1.16 s
human dopamine D2S receptor (receptor, UniProt P14416-2 1-414, looked up, human dopamine D2S receptor (short form of the D2 receptor), non-tagged; source: CHO-K1, stably expressing, in the membrane of living cells) MDPLNLSWYDDDLERQNWSRPFNGSDGKADRPHYNYYATLLTLLIAVIVFGNVLVCMAVSREKALQTTTNYLIVSLAVADLLVATLVMPWVVYLEVVGEWKFSRIHCDIFVTLDVMMCTASILNLCAISIDRYTAVAMPMLYNTRYSSKRRVTVMISIVWVLSFTISCPLLFGLNNADQNECIIANPAFVVYSSIVSFYVPFIVTLLVYIKIYIVLRRRRKRVNTKRSSRAFRAHLRAPLKEAARRAQELEMEMLSSTSPPERTRYSPIPPSHHQLTLPDPSHHGLHSTPDSPAKPEKNGHAKDHPKIAKIFEIQTMPNGKTRTSLKTMSRRKLSQQKEKKATQMLAIVLGVFIICWLPFFITHILNIHCDCNIPPVLYSAFTWLGYVNSAVNPIIYTTFNIEFRKAFLKILHC | – | – | – | – | – | – | – | – | stoichiometry N [1]: 2
human dopamine D3 receptor (receptor, UniProt P35462 1-400, looked up, human dopamine D3 receptor, non-tagged; source: dihydrofolate reductase gene-deficient CHO-K1 cells, stably expressing, in the membrane of living cells) MASLSQLSGHLNYTCGAENSTGASQARPHAYYALSYCALILAIVFGNGLVCMAVLKERALQTTTNYLVVSLAVADLLVATLVMPWVVYLEVTGGVWNFSRICCDVFVTLDVMMCTASILNLCAISIDRYTAVVMPVHYQHGTGQSSCRRVALMITAVWVLAFAVSCPLLFGFNTTGDPTVCSISNPDFVIYSSVVSFYLPFGVTVLVYARIYVVLKQRRRKRILTRQNSQCNSVRPGFPQQTLSPDPAHLELKRYYSICQDTALGGPGFQERGGELKREEKTRNSLSPTIAPKLSLEVRKLSNGRLSTSLKLGPLQPRGVPLREKKATQMVAIVLGAFIVCWLPFFLTHVLNTHCQTCHVSPELYSATTWLGYVNSALNPVIYTTFNIEFRKAFLKILSC | – | – | – | – | – | – | – | – | stoichiometry N [1]: 2
human dopamine D2L receptor (wild type, non-tagged), P14416 1-443 (receptor) MDPLNLSWYDDDLERQNWSRPFNGSDGKADRPHYNYYATLLTLLIAVIVFGNVLVCMAVSREKALQTTTNYLIVSLAVADLLVATLVMPWVVYLEVVGEWKFSRIHCDIFVTLDVMMCTASILNLCAISIDRYTAVAMPMLYNTRYSSKRRVTVMISIVWVLSFTISCPLLFGLNNADQNECIIANPAFVVYSSIVSFYVPFIVTLLVYIKIYIVLRRRRKRVNTKRSSRAFRAHLRAPLKGNCTHPEDMKLCTVIMKSNGSFPVNRRRVEAARRAQELEMEMLSSTSPPERTRYSPIPPSHHQLTLPDPSHHGLHSTPDSPAKPEKNGHAKDHPKIAKIFEIQTMPNGKTRTSLKTMSRRKLSQQKEKKATQMLAIVLGVFIICWLPFFITHILNIHCDCNIPPVLYSAFTWLGYVNSAVNPIIYTTFNIEFRKAFLKILHC | – | – | – | – | – | – | – | – | percent of fluorescent spots that are dimers, labelled with antagonist 1c [2]: 29%; percent of fluorescent spots that are dimers, labelled with antagonist 4a [2]: 30%; percent of fluorescent spots that are dimers, labelled with antagonist 4b [2]: 29%; percent of fluorescent spots that are monomers, labelled with antagonist 1c [2]: 71%; percent of fluorescent spots that are monomers, labelled with antagonist 4a [2]: 70%; stoichiometry N [2]: 2; percent of fluorescent spots that are dimers, labelled with agonist 5a [3]: 45%; percent of fluorescent spots that are dimers, labelled with agonist 5b [3]: 42%
